Patent publication US20240383913A1, “THIOPHENE RING COMPOUND, PREPARATION METHOD THEREFOR AND APPLICATION THEREOF” (CENTER FOR EXCELLENCE IN MOLECULAR CELL SCIENCE, CHINESE …, priority 2021, published 2024)

Key:
dopamine D2 receptors = dopamine D2 receptors (Homo sapiens (Human), UniProt P14416); experiment: Dopamine D2 receptor β-arrestin2 BRET (recruitment); format: cell-based; conditions: D2 receptor, β-arrestin2 pathway;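 note: cells co-expressing Rluc-fused D2 receptor, GRK2 and GFP2-fused β-arrestin2, BRET read with coelenterazine 400a after adding drug over a concentration series, in duplicate wells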
Procedure: To examine the downstream G protein signaling pathway mediated by dopamine D2 receptors, on the first day, a 6 cm culture dish was used for transfection with 1 μg of dopamine D2 receptors, 1 μg of Gαi1 containing a C-terminal seaweed luciferase (Gαi1-Rluc), 1 μg of Gβ3, 1 μg of Gγ9 containing C-terminal green fluorescent protein (Gγ9-GFP), and 16 μL of PEI. At the same time, in order to examine the downstream β-arrestin2 signaling pathway mediated by dopamine D2 receptors, on the first day, a 6 cm culture dish was used for transfection with 500 μg of dopamine D2 receptors containing C-terminal seaweed luciferase (D2-Rluc), 500 μg of G protein-coupled receptor kinase 2 (GRK2), 2500 μg of β-arrestin2 containing N-terminal green fluorescent protein (GFP2-ARRB2) mixed with 14 μL of PEI. The next day, the confluent cells of a 6 cm culture dish were digested and reseeded into a 96-well plate with 100 μL of culture medium added to each well. On the third day, the drugs were added for test. The 96-well plate was taken out from the cell incubator to decant the culture medium, 40 μL of the substrate coelenterazine 400a (final concentration of 5 μM) was added to each well, and then 20 μL of different drugs were added sequentially from left to right to ensure that the final concentration of the drug decreased gradually from bottom to top, with two replicates per treatment. Finally, the prepared samples were loaded on machine for test. The machine readout value reflected the recruitment of β-arrestin2 to the membrane or the dissociation of G protein trimer. The former indicated the degree of activation of the β-arrestin2 signaling pathway downstream of the dopamine D2 receptors, and the latter indicated the degree of activation of the G protein signaling pathway downstream of the dopamine D2 receptors.

[1] = tested on: restraint-induced depression-like behaviors; experiment: Forced swimming test after 5-hour restraint; format: in vivo, C57B6 male mice
Procedure: The experimental animals were C57B6 male mice, n=8 in each group. 5-hour restraint were used to develop depression-like behavioral representations of the mice, then the effects of the compounds on their “depression-like” behaviors were measured according to behavioral performance in tail suspension test and forced swimming test. The specific experimental procedures were as follows: Firstly, the mice were restrained using a mouse fixator for tail vein injection. During the restraint process, all movement abilities of the mice were restricted under the condition of introducing minimal pain to the mice. Compounds were administered intraperitoneally twice, before and after restraint, respectively. After compound administration, the mice returned to the cage to recover for 30 minutes. […]
Forced swimming test: the mice were placed in a 5 L glass beaker filled with water, with the water level at 15 cm height, and the mice were forced to swim continuously in the beaker for 6 minutes. […] The duration of the immobility behavior was recorded intermittently for the remaining 4 minutes, and the immobility behavior of the mice was defined as: the mice float passively on the surface of the water without movement, with only small local movements required to maintain afloat. The duration of this immobility was measured to assess the level of behavioral despair in the mice. […]

5-HT1A receptor = 5-HT1A receptor (Homo sapiens (Human), UniProt P08908); experiment: Affinity for 5-HT1A receptors, radioligand competition with [3H]-LSD; format: binding; conditions: 293T membrane transiently expressing 5-HT1A; [3H]-LSD; read-out: 5-HT1A affinity Ki;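 note: membranes from cells transiently transfected with 5-HT1A receptor, bound [3H]-LSD displaced by compound at 10^-9 to 10^-5 M, 2 h incubation at room temperature in the dark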
Sequence of 5-HT1A receptor (P08908 whole entry): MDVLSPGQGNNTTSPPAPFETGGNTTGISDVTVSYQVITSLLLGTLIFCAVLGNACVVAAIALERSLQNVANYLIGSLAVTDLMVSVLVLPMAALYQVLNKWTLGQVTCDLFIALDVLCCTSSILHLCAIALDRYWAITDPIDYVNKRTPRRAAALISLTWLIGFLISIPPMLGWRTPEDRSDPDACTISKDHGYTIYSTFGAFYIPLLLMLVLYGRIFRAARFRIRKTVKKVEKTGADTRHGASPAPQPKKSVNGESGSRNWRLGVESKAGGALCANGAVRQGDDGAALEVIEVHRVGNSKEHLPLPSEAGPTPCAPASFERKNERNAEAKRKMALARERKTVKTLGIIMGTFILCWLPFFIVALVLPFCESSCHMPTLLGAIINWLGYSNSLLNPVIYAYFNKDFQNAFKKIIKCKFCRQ
Procedure: The affinity of the compounds of the present disclosure for the 5-HTIA receptors was determined by the method of radioligand competition experiment. In the first step, a cell membrane component containing specific 5-HTIA receptor was prepared. A 10 cm culture dish was used for transfection with 10 ng of the 5-HTIA receptor and 40 μL of PEI. After 48 hours, the 10 cm culture dish was taken out from the cell incubator and the cultured cells had expressed the 5-HTIA receptor. A vacuum pump was used to suck off the culture medium, 3 mL of lysis buffer was added to each culture dish, and the cells were placed in a 4° C. cold room for 10 minutes. After the cells were detached, the cells were transferred to a 15 mL centrifuge tube and centrifuged at 1500 rpm for 5 minutes at 4° C., and the supernatant was discarded. The cell pellet was transferred to a tissue homogenizer, and 3 mL of lysis buffer was added and fully ground until the cells were broken. Then, cell suspension was equally aliquoted into several EP tubes, centrifuged at 12000 rpm for 5 minutes at 4° C., and the supernatant was discarded. The precipitate was the cell membrane component containing the 5-HT1A receptor. […] First, a standard binding buffer was added to the cell membrane component containing the 5-HT1A receptor, and the cell membrane was disrupted and resuspended with an electric tissue homogenizer. 30 μL of membrane protein suspension was added to each well of a 96-well plate. Then, 30 μL of different drugs were added to the 96-well plate sequentially from bottom to top to ensure that the final drug concentrations were 10^−5 M, 10^−6 M, 10^−7 M, 10^−8 M, 10^−9 M, and 0 M, with two replicates per treatment. Next, 30 μL of [3H]-LSD was added to each well of the 96-well plate. The plate was incubated for 2 hours at room temperature in the dark. Detection was conducted. The machine readout value reflected the amount of [3H]-LSD bound on the membrane, and after further data processing, the affinity Ki values of different compounds for the 5-HTIA receptor were obtained. To examine the downstream G protein signaling pathway mediated by 5-HTIA receptors, on the first day, a 6 cm culture dish was used for transfection with 1 μg of 5-HTIA receptors, 1 μg of Gαi1 containing C-terminal seaweed luciferase (Gαi1-Rluc), 1 μg of Gβ3, 1 μg of Gγ9 containing C-terminal green fluorescent protein (Gγ9-GFP), and 16 μL of PEI. The next day, the confluent cells of a 6 cm culture dish were digested and reseeded into a 96-well plate with 100 μL of culture medium was added to each well. On the third day, the drugs were added for test. The 96-well plate was taken out from the cell incubator to decant the culture medium, 40 μL of the substrate coelenterazine 400a (final concentration of 5 μM) was added to each well, and then 20 μL of different drugs were added sequentially from left to right to ensure that the final concentration of the drug decreased gradually from bottom to top, with two replicates per treatment. Finally, the prepared samples were loaded on machine for test. The machine readout value reflected the dissociation of G protein trimer, and thereby indicated the degree of activation of the G protein signaling pathway downstream of the 5-HTIA receptors.

Sequence of dopamine D2 receptors (P14416 whole entry, the tested form may be a part): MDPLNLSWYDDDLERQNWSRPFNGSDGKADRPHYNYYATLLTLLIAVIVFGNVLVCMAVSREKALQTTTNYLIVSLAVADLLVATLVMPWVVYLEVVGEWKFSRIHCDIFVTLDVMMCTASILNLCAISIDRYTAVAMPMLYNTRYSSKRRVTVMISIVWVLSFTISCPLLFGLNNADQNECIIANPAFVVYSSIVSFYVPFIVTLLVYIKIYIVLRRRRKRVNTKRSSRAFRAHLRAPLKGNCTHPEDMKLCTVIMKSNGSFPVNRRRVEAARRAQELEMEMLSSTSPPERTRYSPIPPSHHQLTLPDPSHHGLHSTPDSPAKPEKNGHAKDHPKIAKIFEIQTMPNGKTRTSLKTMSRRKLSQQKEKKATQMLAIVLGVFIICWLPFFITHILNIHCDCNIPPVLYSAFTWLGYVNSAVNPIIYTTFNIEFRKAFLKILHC

## CN(C)C(=O)N[C@H]1CC[C@H](CCN2CCN3c4cccc5scc(c45)CC3C2)CC1 (single isomer, unassigned; (-)) [(−)-I-27]
Dopamine D2 receptors
  β-arrestin2 BRET (Emax %): (54.79%)
Dopamine D2 receptors; read-out: β-arrestin2 BRET EC50
  EC50: 10.6 nM
[1]; (−)-I-27 0.025 mg/kg i.p.
  Immobility time (seconds), forced swimming test: 91.83 ± 6.80 s
[1]; (−)-I-27 0.1 mg/kg i.p.
  Immobility time (seconds), forced swimming test: 56.89 ± 4.80 s
5-HT1A receptor
  Ki: 80 nM
